Experiments:
Format in all cases: cell-based, P. putida
[1] = system: J3-GTPCH, J3-PTPS, J3-SR; assay: biopterin pathway activation by CRISPRa, HPLC-MS; conditions: J3-SR (pBBR1-GmR), relative to off-target scRNA, FIG. 6D
[2] = system: J3 promoter; assay: CRISPRa reporter gene activation, J3-BBa_J23117-mRFP; conditions: for activation of mRFP: FIG. 4
Description: Fluorescence measurements of reporter gene expression were carried out either by flow cytometry or plate reader. Single colonies from LB plates were inoculated in 500 µL of EZ-RDM (Teknova) supplemented with the appropriate antibiotics and grown in 96-deep-well plates at 30° C. with shaking overnight 225 rpm. For small-molecule induction, overnight cultures were diluted 100-fold into a new culture with appropriate antibiotics and inducers, then shaken overnight at 30° C., 225 rpm. For flow cytometry, overnight cultures were diluted 1:50 in Dulbecco’s phosphate-buffered saline (PBS) and analyzed on a MACSQuant VYB flow cytometer with the MACSQuantify 2.8 software (Miltenyi Biotec) using the methods and instruments settings as described (Dong et al., 2018. Synthetic CRISPR-Cas gene activators for transcriptional reprogramming in bacteria. Nat Commun 9, 2489). For plate reader measurements, 150 µL of overnight culture were transferred into a flat, clear-bottomed black 96-well plate. OD600 and fluorescence values were measured in a Biotek Synergy HTX plate reader and analyzed using the BioTek Gen5 2.07.17 software. For mRFP1 detection, the excitation wavelength was 540 nm and emission wavelength was 600 nm. For sfGFP detection, the excitation wavelength was 485 nm and the emission wavelength was 528 nm. Data were plotted using Prism (GraphPad).
Next, the 20 bp target sequence that is recognized by the scRNA was examined. The experiments described above were performed with the J1 promoter, which contains an array of 20 base target sites. An alternative promoter, termed J3, that has a different set of 20 base target sites was tested. […] Compared to the J1 promoter, where a 4-fold activation (J106 target site) was observed, the fold-activation with the J3 promoter increased to 34-fold (J306 target site) (FIG. 2D). For both J1 and J3, the CRISPRa-induced expression levels were similar. The large difference in fold-activation results from an unexpected difference in basal expression levels. The basal expression of J3-mRFP is 11-fold lower than that of J1-mRFP, which leads to much higher fold-activation. […]
With optimized expression levels and a delivery strategy for the CRISPRa system in P. putida in place, whether CRISPRa and CRISPRi can be used together to activate and repress multiple genes was tested. […] A dual scRNA/sgRNA cassette was inserted in this plasmid with a J306 scRNA for mRFP activation and an sgRNA that targets within the sfGFP open reading frame (ORF) for repression. […]

[3] = system: J3-BBa_J23117-mvaES; assay: mevalonate pathway activation by CRISPRa, GC-MS; conditions: 13-mvaES (pBBR1-GmR); relative to off-target scRNA; FIG. 7B
Description: For mevalonate production experiments, the GC-MS method was adapted from prior methods (Pfleger et al., 2007. Microbial sensors for small molecules: Development of a mevalonate biosensor. Metab. Eng. 9, 30-38). Single colonies from LB plates were inoculated in 500 µL of EZ-RDM (Teknova) supplemented with the appropriate antibiotics and grown in 96-deep-well plates at 30° C. with shaking overnight at 225 rpm. Overnight cultures were subcultured by 1:100 dilution into 3 mL of EZ-RDM media with 1% glucose as the carbon source, supplemented with the appropriate antibiotics, and shaken at 225 rpm for 72 hours at 30° C. After 72 hours, 560 µL of cell suspension was acidified with 140 µL of 0.5 M HCl and vortexed. 700 µL ethyl acetate was added and samples were then vortexed again vigorously for 3 minutes and centrifuged at maximum speed in a benchtop centrifuge (15,000 rcf) for 10 min. […] The temperature cycle started at 80° C. and was followed by a gradient of 20° C./min to 260° C., a second gradient of 40° C./min to 300° C., and a hold at 300° C. for 2 min. m/z = 71, the second most abundant peak corresponding to mevalonolactone, was used for quantitation (Pfleger et al., 2007. Microbial sensors for small molecules: Development of a mevalonate biosensor. Metab. Eng. 9, 30-38). […] The calculated concentration was adjusted by the addition of HCl. […]

J306: scRNA, SEQ ID NO: 95, target TTGTGTCCAGAACGCTCCGT, J3 and J1(306) promoters, template strand, 81 to TSS (chemistry not given here)
Fold-change, metabolite production [1]: 5-fold
Fold-change ([2]; J3-mRFP (integrated), dual reporters genomically-integrated, FIG. 15A): 3-fold
Fold-change ([2]; J3-mRFP (pBBR1-GmR), dual mRFP/sfGFP reporter plasmid-bourne, FIG. 13): 41-fold
activation of mRFP ([2]; just a single scRNA delivered, weak mRFP/strong sfGFP dual-reporter plasmid): 15 fold
activation of mRFP ([2]; simultaneous CRISPRa/CRISPRi, dual-reporter plasmid with sfGFP-repressing sgRNA): 6.6 fold
Fold-change, metabolite production [3]: >40-fold

— US20230340440A1, “GENETIC MANIPULATION METHOD IN BACTERIA” (University of Washington, priority 2022, published 2023)
